Reference: patent publication US11981677B2, “Further substituted triazolo quinoxaline derivatives” (Grünenthal GmbH, priority 2018, dated 2024)

Target: T1, Glucocorticoid Receptor (Homo sapiens, UniProt P04150)
T1 construct: expressed in transfected cells
T1 sequence (P04150 524-758 limits assumed): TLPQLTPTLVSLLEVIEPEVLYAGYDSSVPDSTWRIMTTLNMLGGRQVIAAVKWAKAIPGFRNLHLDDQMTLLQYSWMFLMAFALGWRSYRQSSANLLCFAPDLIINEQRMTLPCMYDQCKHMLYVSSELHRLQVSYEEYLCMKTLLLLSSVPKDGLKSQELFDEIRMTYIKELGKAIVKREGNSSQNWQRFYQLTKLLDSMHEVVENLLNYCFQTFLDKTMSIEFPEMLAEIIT
Assay: Agonistic mode of action on the glucocorticoid receptor (CHO-Gal4/GR luciferase reporter cell line)
Format: cell-based
Details: CHO-Gal4/GR luciferase reporter cells; observed in the agonistic assay or the antagonistic assay (mode not given); read-out: IC50 or EC50 range
Source text: Potential selective glucocorticoid receptor modulators of this intervention can be tested for modulation of the activity of the glucocorticoid receptor using cell-based assays. These assays involve a Chinese hamster ovary (CHO) cell line which contains fragments of the glucocorticoid receptor as well as fusion proteins. The glucocorticoid receptor fragments used are capable of binding the ligand (e.g. beclomethasone) to identify molecules that compete for binding with glucocorticoid receptor ligands. In more detail, the glucocorticoid receptor ligand binding domain is fused to the DNA binding domain (DBD) of the transcriptionfactor GAL4 (GAL4 DBD-GR) and is stably integrated into a CHO cell line containing a GAL4-UAS-Luciferase reporter construct. […] After cell lysis the luminescence that is produced by luciferase after addition of the substrate is detected and EC50 or IC50 values can be calculated. Engagement of molecules which induce gene expression via glucocortocoid receptor binding to the DNA leads to expression of the luciferase gene under the control of the fusion protein GAL4 DBD-GR and therefore to a dose-dependent increase of the luminescence signal. Binding of molecules which repress beclomethasone-induced gene expression of the luciferase gene under the control of the fusion protein GAL4 DBD-GR leads to a dose-dependent reduction of the luminescence signal.
The reporter cell line CHO-Gal4/GR consisted of a chinese hamster ovary (CHO) cell line (Leibniz Institute DSMZ—German Collection of Microorganisms and Cell Cultures GmbH: ACC-110) containing a firefly luciferase gene under the control of the GR ligand binding domain fused to the DNA binding domain (DBD) of GAL4 (GAL4 DBD-GR) stably integrated into CHO cells. This cell line was established by stable transfection of CHO cells with a GAL4-UAS-Luciferase reporter construct. In a subsequent step the ligand binding domain of the GR cloned into pIRES2-EGFP-GAL4 containing the DNA binding domain of GAL4 from pFA-AT2 was transfected. This fusion construct activated firefly luciferase expression under the control of a multimerized GAL4 upstream activation sequence (UAS). The signal of the emitted luminescence was recorded by the FLIPR^TETRA. This allowed for specific detection of ligand-induced activation of the GR and therefore for the identification of compounds with agonistic properties. The GAL4/UAS reporter was premixed with a vector that constitutively expressed Renilla luciferase, which served as an internal positive control for transfection efficiency.
The complete culture medium for the assay was: • DMEM F-12 (1:1) MIXTURE (LONZA cat. No: BE04-687F/U1) 500 mL • 5 mL of 100 mM Sodium Pyruvate (LONZA cat. No: BE12-115E) • 25 mL of 7.5% Sodium Bicarbonate (LONZA cat. No BE17-613E) • 6.5 mL of 1 M Hepes (LONZA cat. No: BE17-737E) • 5 mL of 100× Penicillin/Streptomycin (LONZA cat. No DE17-602E) • 50 mL of Fetal Bovine Serum (Euroclone cat. No ECS 0180L) • 0.25 mL of 10 mg/mL Puromycin (InvivoGen cat.: ant-pr-1) • 0.5 mL of 100 mg/mL Zeocin (InvivoGen cat.: ant-zn-1)
Cryo-preserved CHO-Gal4/GR cells were suspended in complete medium and 5000 cells/25 μl/well were seeded into the wells of 384-well polystyrene assay plates (Thermo Scientific, cat. #4332) and cultured at 37° C., 5% CO2 and 95% humidity. After 24 hours growth medium was carefully removed and replaced by 30111 Opti-MEM (GIBCO, cat. #31985062) as assay buffer. To test the compounds an 8-point half-log compound dilution curve was generated in 100% DMSO starting from a 2 mM stock and compounds were then diluted 1:50 in Opti-MEM. 10111 of compounds were then added to the wells containing 30 μl Opti-MEM resulting in a final assay concentration range from 10 μM to 0.003 μM in 0.5% DMSO. Compounds were tested at 8 concentrations in quadruplicate data points. […] Finally, cells were lysed with 20 μl of Triton/Luciferin solution and the signal of the emitted luminescence was recorded at the FLIPR^TETRA for 2 minutes. […]

Compound	IC50 or EC50 (antagonist or agonist mode, not stated per compound)
CCS(=O)(=O)n1ccc2c(-c3c(C)c4c(c(F)c3F)NC(C)(C)c3nnc(C)n3-4)cc(F)cc21 [Example 446, 8-(1-(ethylsulfonyl)-6-fluoro-1H-indol-4-yl)-6,7-difluoro-1,4,4,9-tetramethyl-4,5-dihydro-[1,2,4]triazolo[4,3-a]quinoxaline]	< 100 nM
Cc1c(-c2cc(F)cc3c2ccn3S(C)(=O)=O)c(F)c(F)c2c1-n1c(C)nnc1C(C)(C)N2 [Example 447, 6,7-Difluoro-8-(6-fluoro-1-methylsulfonyl-1H-indol-4-yl)-1,4,4,9-tetramethyl-5H-[1,2,4]triazolo[4,3-a]quinoxaline]	< 100 nM
Cc1c(-c2cccc3c2ccn3S(C)(=O)=O)c(F)c(F)c2c1-n1c(C)nnc1C(C)(C)N2 [Example 448, 6,7-difluoro-1,4,4,9-tetramethyl-8-(1-(methylsulfonyl)-1H-indol-4-yl)-4,5-dihydro-[1,2,4]triazolo[4,3-a]quinoxaline]	< 100 nM
Cc1c(-c2cc(F)cc3c2ccn3CCO)c(F)c(F)c2c1-n1c(C)nnc1C(C)(C)N2 [Example 449, 2-[4-(6,7-Difluoro-1,4,4,9-tetramethyl-5H-[1,2,4]triazolo[4,3-a]quinoxalin-8-yl)-6-fluoro-1H-indol-1-yl]-EtOH]	100 to 1000 nM
Cc1nnc2n1-c1c(C#N)c(-c3cccc4c3ccn4C3CC3)cc(F)c1NC2(C)C [Example 450, 8-(1-cyclopropyl-1H-indol-4-yl)-6-fluoro-1,4,4-trimethyl-4,5-dihydro-[1,2,4]triazolo[4,3-a]quinoxaline-9-carbonitrile]	< 100 nM
Cc1c(-c2cccc3c2cnn3S(C)(=O)=O)c(F)c(F)c2c1-n1c(C)nnc1C(C)(C)N2 [Example 451, 6,7-Difluoro-1,4,4,9-tetramethyl-8-(1-methylsulfonyl-1H-indazol-4-yl)-5H-[1,2,4]triazolo[4,3-a]quinoxaline]	100 to 1000 nM
Cc1c(-c2cc(F)cc3c2cnn3S(C)(=O)=O)c(F)c(F)c2c1-n1c(C)nnc1C(C)(C)N2 [Example 452, 6,7-Difluoro-8-(6-fluoro-1-methylsulfonyl-1H-indazol-4-yl)-1,4,4,9-tetramethyl-5H-[1,2,4]triazolo[4,3-a]quinoxaline]	< 100 nM
Cc1nnc2n1-c1c(CO)c(-c3cc(F)cc4c3ccn4S(C)(=O)=O)cc(F)c1NC2(C)C [Example 453, [6-Fluoro-8-(6-fluoro-1-methylsulfonyl-1H-indol-4-yl)-1,4,4-trimethyl-5H-[1,2,4]triazolo[4,3-a]quinoxalin-9-yl]-MeOH]	< 100 nM
Cc1c(-c2cc(F)cc3c(C)c[nH]c23)cc(Cl)c2c1-n1c(C)nnc1C(C)(C)N2 [Example 454, 6-Chloro-8-(5-fluoro-3-methyl-1H-indol-7-yl)-1,4,4,9-tetramethyl-5H-[1,2,4]triazolo[4,3-a]quinoxaline]	< 100 nM
Cc1nnc2n1-c1c(c(F)cc(-c3cc(F)cc4c3ccn4S(C)(=O)=O)c1C(F)F)NC2(C)C [Example 455, 9-(difluoromethyl)-6-fluoro-8-(6-fluoro-1-(methylsulfonyl)-1H-indol-4-yl)-1,4,4-trimethyl-4,5-dihydro-[1,2,4]triazolo[4,3-a]quinoxaline]	< 100 nM
Cc1c(-c2cccc3c2ccn3S(C)(=O)=O)cc(Cl)c2c1-n1c(C)nnc1C(C)(C)N2 [Example 456, 6-Chloro-1,4,4,9-tetramethyl-8-(1-methylsulfonyl-1H-indol-4-yl)-5H-[1,2,4]triazolo[4,3-a]quinoxaline]	< 100 nM
Cc1c(-c2cc(F)cc3c2ccn3S(C)(=O)=O)cc(Cl)c2c1-n1c(C)nnc1C(C)(C)N2 [Example 457, 6-Chloro-8-(6-fluoro-1-methylsulfonyl-1H-indol-4-yl)-1,4,4,9-tetramethyl-5H-[1,2,4]triazolo[4,3-a]quinoxaline]	< 100 nM

Continued, values first:

IC50 or EC50 (antagonist or agonist mode, not stated per compound)	Compound
100 to 1000 nM	Cc1c(-c2cccc3c2cnn3S(C)(=O)=O)cc(Cl)c2c1-n1c(C)nnc1C(C)(C)N2 [Example 458, 6-Chloro-1,4,4,9-tetramethyl-8-(1-methylsulfonyl-1H-indazol-4-yl)-5H-[1,2,4]triazolo[4,3-a]quinoxaline]
< 100 nM	Cc1nnc2n1-c1c(c(F)cc(-c3cccc4c3ccn4S(C)(=O)=O)c1C(F)F)NC2(C)C [Example 459, 9-(Difluoro-methyl)-6-fluoro-1,4,4-trimethyl-8-(1-methylsulfonyl-1H-indol-4-yl)-5H-[1,2,4]triazolo[4,3-a]quinoxaline]
< 100 nM	CCS(=O)(=O)n1ccc2c(-c3cc(F)c4c(c3C(F)F)-n3c(C)nnc3C(C)(C)N4)cc(F)cc21 [Example 460, 9-(Difluoro-methyl)-8-[1-(ethylsulfonyl)-6-fluoro-1H-indol-4-yl]-6-fluoro-1,4,4-trimethyl-5H-[1,2,4]triazolo[4,3-a]quinoxaline]
100 to 1000 nM	CCS(=O)(=O)n1ccc2c(-c3cc(F)c4c(c3C(F)F)-n3c(C)nnc3C(C)(C)N4)cccc21 [Example 461, 9-(Difluoro-methyl)-8-[1-(ethylsulfonyl)-1H-indol-4-yl]-6-fluoro-1,4,4-trimethyl-5H-[1,2,4]triazolo[4,3-a]quinoxaline]
< 100 nM	Cc1c[nH]c2c(-c3cc(F)c4c(c3C(F)F)-n3c(C)nnc3C(C)(C)N4)cc(F)cc12 [Example 462, 9-(Difluoro-methyl)-6-fluoro-8-(5-fluoro-3-methyl-1H-indol-7-yl)-1,4,4-trimethyl-5H-[1,2,4]triazolo[4,3-a]quinoxaline]
< 100 nM	Cc1c(-c2cc(F)cc3c2ccn3CCO)cc(Cl)c2c1-n1c(C)nnc1C(C)(C)N2 [Example 463, 2-[4-(6-Chloro-1,4,4,9-tetramethyl-5H-[1,2,4]triazolo[4,3-a]quinoxalin-8-yl)-6-fluoro-1H-indol-1-yl]-EtOH]
100 to 1000 nM	CCc1c(-c2cc(F)cc3c2ccn3CCO)cc(F)c2c1-n1c(C)nnc1C(C)(C)N2 [Example 464, 2-[4-(9-Ethyl-6-fluoro-1,4,4-trimethyl-5H-[1,2,4]triazolo[4,3-a]quinoxalin-8-yl)-6-fluoro-1H-indol-1-yl]-EtOH]
< 100 nM	Cc1c(-c2cc(F)cc3[nH]ccc23)cc(F)c2c1-n1c(C)nnc1C(C)(C)N2 [Example 465, 6-fluoro-8-(6-fluoro-1H-indol-4-yl)-1,4,4,9-tetramethyl-4,5-dihydro-[1,2,4]triazolo[4,3-a]quinoxaline]
100 to 1000 nM	Cc1n[nH]c2c(-c3cc(F)c4c(c3C(F)F)-n3c(C)nnc3C(C)(C)N4)cccc12 [Example 466, 9-(difluoromethyl)-6-fluoro-1,4,4-trimethyl-8-(3-methyl-1H-indazol-7-yl)-4,5-dihydro-[1,2,4]triazolo[4,3-a]quinoxaline]
